Test systems include SK-MEL-5; SK-MEL-2; SF-268; OVCAR-8; ACHN; K562; KM12; HOP-62; SF-295; HOP-18; M14; RXF 393; OVCAR-3; A498; NCI-H522; BT-549; T47D; MDA-MB-231; NCI/ADR-RES; MDA-N.
Holding throughout (test): NCI anticancer screen, dose series, 48 h

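Values below derive from 48-hour exposures of cells grown in 96-well plates, with endpoints linearly interpolated between the two concentrations bracketing the appropriate inhibition level. Abbreviation: GI50, concentration required for 50% inhibition of growth.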 Calls of active or inactive are those of the source. No stated cut-off is given here; in the data, active = GI50 up to about 1.1 µM and inactive = higher.

Regarding `CC(=O)O[C@]12CCCCCC1C1(O)C(O)CCC[C@H]12` (some centres undefined), the GI50 in the assay with SK-MEL-5, with SK-MEL-2, with SF-268, in the assay with OVCAR-8, in the assay on ACHN and with K562 was > 100 µM (inactive) throughout. In addition, the GI50 in the assay on KM12, in the assay on HOP-62, in the assay with SF-295, in the assay with HOP-18, in the assay on M14 and with RXF 393 was > 100 µM (inactive) in each case.
Regarding `O=C1CCC(c2ccccc2)C(O)(C(=O)O)C1` (centres undefined), the GI50 in the assay on SK-MEL-5, in the assay with SK-MEL-2, in the assay on OVCAR-3, in the assay on SF-268, with OVCAR-8 and with ACHN was > 100 µM (inactive) in each case. In addition, the GI50 in the assay on K562, with KM12, in the assay with HOP-62, in the assay on A498, with SF-295 and in the assay with HOP-18 was > 100 µM (inactive) throughout. The GI50 in the assay with NCI-H522 and in the assay on M14 was > 100 µM (inactive) in each case.
Turning to `CC(=O)O[C@]12CCCCC1C1(O)C(O)CCCCC12` (some centres undefined), the GI50 in the assay on SK-MEL-5 is > 100 µM (inactive); with SK-MEL-2 it was > 100 µM (inactive); in the assay on SF-268, > 100 µM (inactive); in the assay with OVCAR-8, > 100 µM (inactive); in the assay on ACHN, 76 µM (inactive); in the assay on K562 it was > 100 µM (inactive). Besides, the GI50 in the assay with KM12, in the assay on HOP-62, with SF-295, with HOP-18, in the assay on NCI-H522 and in the assay with M14 was > 100 µM (inactive) in each case. The GI50 in the assay with RXF 393 was > 100 µM (inactive).
As to `CSc1snc2sc3c(Cl)nnnc3c12`, the GI50 in the assay with SK-MEL-5 is 16.7 µM (inactive); in the assay on SK-MEL-2 it was 12.6 µM (inactive); in the assay on OVCAR-3, 2.43 µM (inactive); with SF-268, 16.9 µM (inactive); in the assay on OVCAR-8, 7.46 µM (inactive); with ACHN, 11.1 µM (inactive). Besides, the GI50 in the assay on K562 was 2.36 µM (inactive); in the assay with KM12, 16.4 µM (inactive); in the assay with HOP-62, 16.1 µM (inactive); in the assay with A498, 15 µM (inactive); in the assay on SF-295 it was 18 µM (inactive); in the assay on HOP-18 it was 19.1 µM (inactive). Further, the figures for the GI50 with M14 and in the assay with RXF 393 were 12.6 µM (inactive) and 12.3 µM (inactive), respectively.
Turning to `CC(=O)/C(=C\c1cccc([N+](=O)[O-])c1)C(=O)Nc1ccccc1C`, the GI50 with SK-MEL-5 is > 100 µM (inactive); in the assay on SK-MEL-2, > 100 µM (inactive); in the assay with OVCAR-3 it was > 100 µM (inactive); in the assay with SF-268, > 100 µM (inactive); in the assay on OVCAR-8, > 10 µM (inactive); in the assay on ACHN, > 100 µM (inactive). Also, the GI50 in the assay with K562 was 72.4 µM (inactive); in the assay on KM12 it was > 100 µM (inactive); with HOP-62 it was > 100 µM (inactive); with SF-295 it was > 100 µM (inactive); with HOP-18 it was > 100 µM (inactive); in the assay on NCI-H522 it was > 100 µM (inactive). Further, the GI50 in the assay on M14 was 95.7 µM (inactive); in the assay on RXF 393, > 100 µM (inactive).
Consider `COc1ccc([Se]c2ccc(OC)cc2OC)c(OC)c1`, for which the GI50 in the assay with SK-MEL-5 is 22.2 µM (inactive); in the assay on SK-MEL-2, 17.5 µM (inactive); in the assay on OVCAR-3 it was 32 µM (inactive); in the assay with SF-268, 35.6 µM (inactive); in the assay with OVCAR-8, 33.6 µM (inactive); with ACHN, 45.3 µM (inactive). In addition, the GI50 is 10.5 µM (inactive) in the assay with K562; 17.4 µM (inactive) in the assay with KM12; 18.7 µM (inactive) with A498; 8.57 µM (inactive) in the assay on SF-295; 20.2 µM (inactive) in the assay with HOP-18; 13 µM (inactive) in the assay on NCI-H522. Also, the GI50 with M14 was 18.4 µM (inactive); with RXF 393, 18.2 µM (inactive).
Take `O=C(O)Cc1ccc2c(c1)/C(=C1/Nc3ccccc3C1=O)C(=O)N2`: the GI50 is 20.7 µM (inactive) with SK-MEL-5; 40.9 µM (inactive) with SK-MEL-2; 14.1 µM (inactive) in the assay with OVCAR-3; 58.2 µM (inactive) in the assay with SF-268; 44.5 µM (inactive) with BT-549; 7.71 µM (inactive) with T47D. The GI50 with OVCAR-8 was 32 µM (inactive); in the assay with MDA-MB-231, > 100 µM (inactive); with ACHN, 32.5 µM (inactive); in the assay on K562, 19.2 µM (inactive); with KM12, 29.2 µM (inactive); with HOP-62, 51.8 µM (inactive). The GI50 in the assay with A498 is 31.7 µM (inactive); in the assay on SF-295, 80.5 µM (inactive); with NCI/ADR-RES, > 100 µM (inactive); in the assay with MDA-N, 38.4 µM (inactive); with NCI-H522, 35 µM (inactive); in the assay with M14 it was 36.6 µM (inactive). For the same compound, in the assay with RXF 393, the GI50 was 17.2 µM (inactive).
Consider `Cc1cc(C)cc(NC(=O)CCC(=O)C2CCC/C2=N\NC(=O)C(=O)NN)c1` (centres undefined), for which the GI50 in the assay on SK-MEL-5, in the assay with SK-MEL-2, with OVCAR-3, in the assay on SF-268, in the assay with OVCAR-8 and in the assay on ACHN was > 100 µM (inactive) in each case. Also, the GI50 in the assay with K562, with KM12, in the assay with A498, in the assay on SF-295, in the assay on HOP-18 and in the assay on M14 was > 100 µM (inactive) each time. Also, in the assay on RXF 393, the GI50 was > 100 µM (inactive).
On to `C=CC1=C(C)c2cc3[nH]c(cc4nc(cc5[nH]c(cc1n2)c(C)c5CCC(=O)N(CC)CC)C(CCC(=O)N(CC)CC)=C4C)c(C)c3C=C`, for which the GI50 in the assay with SK-MEL-5, in the assay with SK-MEL-2, in the assay with OVCAR-3, with OVCAR-8, in the assay on ACHN and with K562 was > 100 µM (inactive) in each case. Also, the GI50 was > 100 µM (inactive) in the assay with KM12; > 100 µM (inactive) in the assay on HOP-62; 61.2 µM (inactive) in the assay with SF-295; < 0.01 µM (active) with HOP-18; > 100 µM (inactive) with NCI-H522; > 100 µM (inactive) with M14. In the assay on RXF 393, the GI50 is 75.9 µM (inactive).
Turning to `O=C1OCC(C(=O)c2cccc(O)c2)C1=O` (centres undefined), the GI50 in the assay on SK-MEL-5, in the assay on OVCAR-3, with SF-268, in the assay with OVCAR-8, in the assay on ACHN and in the assay with KM12 was > 100 µM (inactive) throughout. Moreover, the GI50 in the assay with HOP-62, in the assay with A498, in the assay with SF-295, with HOP-18, in the assay on NCI-H522 and in the assay on M14 was > 100 µM (inactive) in each case. Moreover, in the assay with RXF 393, the GI50 is > 100 µM (inactive).
In the case of `O=C(O)CNc1cc(-c2ccccc2)nc(NCC(=O)O)n1`, the GI50 in the assay with SK-MEL-5, in the assay with SK-MEL-2, in the assay on OVCAR-3, in the assay with OVCAR-8, in the assay with ACHN and in the assay on K562 was > 100 µM (inactive) each time. The GI50 in the assay with KM12, in the assay on HOP-62, in the assay on SF-295, with HOP-18, in the assay on NCI-H522 and in the assay with M14 was > 100 µM (inactive) each time.
With `COc1ccc(C[C@H]2NC[C@H](O)[C@H]2OC(C)=O)cc1` [ANISOMYCIN], the GI50 with SK-MEL-5 is 0.0133 µM (active); in the assay with SK-MEL-2, 0.0287 µM (active); in the assay with OVCAR-3, 0.0263 µM (active); with SF-268 it was 0.0361 µM (active); with BT-549 it was 0.0411 µM (active); with T47D, 0.0303 µM (active). The GI50 in the assay on OVCAR-8 is < 0.0168 µM (active); with MDA-MB-231 it was 0.0159 µM (active); in the assay with ACHN, < 0.0144 µM (active); with K562, < 0.0124 µM (active); in the assay with KM12 it was 0.0224 µM (active); in the assay on HOP-62, < 0.021 µM (active). Also, the GI50 in the assay on A498 was 0.0324 µM (active); in the assay on SF-295, < 0.0184 µM (active); in the assay with NCI/ADR-RES it was 0.0282 µM (active); in the assay with MDA-N, 0.0313 µM (active); with NCI-H522, < 0.0198 µM (active); in the assay with M14 it was < 0.0136 µM (active). Also, in the assay with RXF 393, the GI50 is 0.0483 µM (active).
As for `CC(=O)O[C@@H]1CO[C@H]2O[C@H]3[C@@H](C(C=O)=C[C@H](O)[C@@H]4C5=C(C(C)C)CC[C@]5(C)CC[C@@]34C)[C@@]2(O)C1=O` [STRIATIN E], the GI50 with SK-MEL-5 is 0.267 µM (active); with SK-MEL-2 it was 0.23 µM (active); in the assay on OVCAR-3, 0.139 µM (active); with SF-268 it was 0.24 µM (active); in the assay with BT-549, 0.12 µM (active); in the assay on T47D, 0.0889 µM (active). For the same compound, the GI50 is 0.13 µM (active) in the assay with OVCAR-8; 0.184 µM (active) with MDA-MB-231; 0.114 µM (active) with ACHN; 0.0869 µM (active) with K562; 0.404 µM (active) with KM12; 0.575 µM (active) in the assay with HOP-62. In addition, the GI50 in the assay with A498 was 0.305 µM (active); with SF-295, 0.586 µM (active); in the assay with NCI/ADR-RES, 0.189 µM (active); in the assay with MDA-N, 0.177 µM (active); with NCI-H522, 0.0803 µM (active); in the assay with M14, 0.262 µM (active). In addition, the GI50 with RXF 393 was 0.106 µM (active).

(Values after ChEMBL document CHEMBL1201862, “PubChem BioAssay data set” (2004).)
